Laboratory results as given in ChEMBL document CHEMBL5532643, “Design and synthesis of etrasimod derivatives as potent antibacterial agents against Gram-positive bacteria” (Eur J Med Chem, 2024).
≈ marks a conversion by molar mass, not a printed value. Where “and” joins values, the source holds several entries; their conditions need not be identical. Identical values can stand only once. Calls of active or inactive are those of the source. The calls are words filed in the database; no cut-off is given here.

Columns and labels:
THP-1 = assay: Cytotoxicity against human THP-1 cells assessed as reduction in cell viability at 50 uM incubated for 24 hrs by resazurin staining based analysis relative to control; type: toxicity; details: thp-1, 24 h
Enterococcus faecium = assay: Antibacterial activity against vancomycin-resistant Enterococcus faecium ATCC 700221 assessed as reduction in bacterial growth incubated for 18 to 20 hrs by broth microdilution assay; type: functional; details: time 18-20 hrs
Pseudomonas aeruginosa = assay: Antibacterial activity against Pseudomonas aeruginosa ATCC 15442 assessed as reduction in bacterial growth incubated for 18 to 20 hrs by broth microdilution assay; type: functional; details: time 18-20 hrs
[1] = Hemolytic activity in mouse RBC assessed as hemolysis at 250 uM incubated for 1 hr; type: toxicity, cell-based, Erythrocyte; details: mouse red blood cells (erythrocytes), read-out: Activity
Staphylococcus aureus [2] = assay: Antibacterial activity against Staphylococcus aureus ATCC 43300 assessed as reduction in bacterial growth incubated for 18 to 20 hrs by broth microdilution assay; type: functional; details: time 18-20 hrs
Staphylococcus aureus [3] = assay: Antimicrobial activity against Staphylococcus aureus ATCC 25923 infected in Caenorhabditis elegans AU37 assessed as reduction in bacterial burden at 20 uM incubated for 18 hrs; type: functional; parameters: scale not given: the % may be the effect or the level left
[4] = Hemolytic activity in mouse RBC assessed as hemolysis at 125 uM incubated for 1 hr; type: toxicity, cell-based, Erythrocyte; details: mouse red blood cells (erythrocytes), read-out: Activity
Staphylococcus aureus [5] = assay: Antibiofilm activity against Staphylococcus aureus ATCC 25923 assessed as inhibition of biofilm viability at 100 uM incubated for 18 to 20 hrs by resazurin staining based assay; type: functional; details: time 18-20 hrs
[6] = tested on: Staphylococcus epidermidis; assay: Antibacterial activity against […] Staphylococcus epidermidis RP62A assessed as reduction in bacterial growth incubated for 18 to 20 hrs by broth microdilution assay; type: functional; details: time 18-20 hrs
[7] = Cytotoxicity against human THP-1 cells assessed as reduction in cell viability incubated for 24 hrs by resazurin staining based analysis; type: toxicity
[8] = Toxicity in Caenorhabditis elegans AU37 assessed as worms survival at 10 uM measured after 72 hrs
Staphylococcus aureus [9] = assay: Antibiofilm activity against Staphylococcus aureus ATCC 25923 assessed as inhibition of biofilm biomass at 100 uM incubated for 18 to 20 hrs by crystal violet staining based assay; type: functional; details: time 18-20 hrs
Staphylococcus aureus [10] = assay: Antibacterial activity against Staphylococcus aureus ATCC 25923 assessed as reduction in bacterial growth incubated for 18 to 20 hrs by broth microdilution assay; type: functional; details: time 18-20 hrs
Enterococcus faecalis [11] = assay: Antibacterial activity against Enterococcus faecalis ATCC 29212 assessed as reduction in bacterial growth incubated for 18 to 20 hrs by broth microdilution assay; type: functional; details: time 18-20 hrs
Cell membrane [12] = assay: Induction of cytoplasmic membrane depolarization in Staphylococcus aureus ATCC 25923 assessed as increase in fluorescence intensity at 4 times MIC measured for 30 mins by DiSC3(5) dye based fluorescence method; type: cell membranes
Staphylococcus aureus [13] = assay: Antibacterial activity against […] Staphylococcus aureus ATCC 43300 assessed as reduction in bacterial growth incubated for 18 to 20 hrs by broth microdilution assay; type: functional; details: time 18-20 hrs
[14] = tested on: Staphylococcus epidermidis; assay: Antibacterial activity against Staphylococcus epidermidis RP62A assessed as reduction in bacterial growth incubated for 18 to 20 hrs by broth microdilution assay; type: functional; details: time 18-20 hrs
Acinetobacter baumannii = assay: Antibacterial activity against Acinetobacter baumannii NCTC 13423 assessed as reduction in bacterial growth incubated for 18 to 20 hrs by broth microdilution assay; type: functional; details: time 18-20 hrs
[15] = Dissociation constant, pKa of compound; type: physicochemical
Enterococcus faecalis [16] = assay: Antibacterial activity against vancomycin-resistant Enterococcus faecalis ATCC 51575 assessed as reduction in bacterial growth incubated for 18 to 20 hrs by broth microdilution assay; type: functional; details: time 18-20 hrs
Staphylococcus aureus [17] = assay: Antimicrobial activity against methicillin-resistant Staphylococcus aureus ATCC 43300 infected in Caenorhabditis elegans AU37 assessed as reduction in bacterial burden at 20 uM incubated for 18 hrs; type: functional; parameters: scale not given: the % may be the effect or the level left
Erythrocyte = assay: Hemolytic activity in mouse RBC assessed as hemolysis at 62.5 uM incubated for 1 hr; type: toxicity, cell-based
Staphylococcus aureus [18] = assay: Antibiofilm activity against Staphylococcus aureus ATCC 25923 assessed as reduction in biofilm biomass at 100 uM incubated for 18 to 20 hrs by crystal violet staining based assay; type: functional; parameters: scale not given: the % may be the effect or the level left; details: time 18-20 hrs
Staphylococcus aureus [19] = assay: Antibacterial activity against Staphylococcus aureus ATCC 25923 assessed as inhibition of bacterial growth at 40 uM incubated for 18 to 24 hrs by broth microdilution assay relative to control; type: functional; details: time 18-24 hrs
Staphylococcus aureus [20] = assay: Drug resistance, ratio of MIC for Staphylococcus aureus ATCC 25923 after 20 days exposure to MIC for Staphylococcus aureus ATCC 25923 during first exposure; type: functional; details: time 20 day
Staphylococcus aureus [21] = assay: Drug resistance, ratio of MIC for methicillin-resistant Staphylococcus aureus after 20 days exposure to MIC for methicillin-resistant Staphylococcus aureus during first exposure; type: functional; details: time 20 day
Cell membrane [22] = assay: Induction of cell membrane permeability in Staphylococcus aureus ATCC 25923 assessed as increase in fluorescence intensity at 4 times MIC incubated for 30 mins by PI staining based analysis; type: cell membranes
Cell membrane [23] = assay: Induction of cell membrane permeability in Staphylococcus aureus ATCC 25923 assessed as increase in fluorescence intensity incubated for 30 mins by PI staining based analysis; type: cell membranes

O=C(O)C[C@H]1CCc2c1[nH]c1ccc(OCc3ccc(C4CCCC4)c(C(F)(F)F)c3)cc21 [ETRASIMOD]
Activity (THP-1): 64%
MIC (Enterococcus faecium): 5 µM (≈ 2.29 µg/mL)
MIC (Pseudomonas aeruginosa): > 200 µM
hemolysis at 1 h, 250 µM [1]: 100%
MIC (Staphylococcus aureus [2]): 5 µM (≈ 2.29 µg/mL)
Activity (Staphylococcus aureus [3]): >85%
hemolysis at 1 h, 125 µM [4]: 7%
inhibition at 100 µM (Staphylococcus aureus [5]): 80%
MIC [6]: 5 µM (≈ 2.29 µg/mL)
CC50 at 24 h [7]: 57.7 µM
Activity [8]: Non-Toxic
inhibition at 100 µM (Staphylococcus aureus [9]): 20%
MIC (Staphylococcus aureus [10]): 5 µM and 2.3 µg/mL
MIC (Enterococcus faecalis [11]): 5 µM (≈ 2.29 µg/mL)
Activity (Cell membrane [12]): inactive
MIC (Staphylococcus aureus [13]): 5 µM (≈ 2.29 µg/mL)
MIC [14]: 10 µM (≈ 4.57 µg/mL)
MIC (Acinetobacter baumannii): > 200 µM
pKa [15]: 4
MIC (Enterococcus faecalis [16]): 10 µM (≈ 4.57 µg/mL)
Activity (Staphylococcus aureus [17]): 77%
Activity (Erythrocyte): Non-Toxic

O=C(O)CC1CCc2c1[nH]c1ccc(OCc3cnc(C4CCCC4)c(C(F)(F)F)c3)cc21 (stereo not drawn)
inhibition at 100 µM (Staphylococcus aureus [5]): > 90%
Activity (Staphylococcus aureus [18]): 50%
inhibition at 100 µM (Staphylococcus aureus [9]): > 90%
MIC (Staphylococcus aureus [10]): 20 µM and 9.2 µg/mL
inhibition at 40 µM (Staphylococcus aureus [19]): ≤ 90%

O=C(O)c1cn(C2CC2)c2cc(N3CCNCC3)c(F)cc2c1=O [CIPROFLOXACIN]
MIC (Enterococcus faecium): 40 µM (≈ 13.3 µg/mL)
Ratio (Staphylococcus aureus [20]): 80
MIC (Staphylococcus aureus [2]): 2.5 µM (≈ 0.828 µg/mL)
Ratio (Staphylococcus aureus [21]): 170
MIC [6]: 1.25 µM (≈ 0.414 µg/mL)
MIC (Enterococcus faecalis [11]): 2.5 µM (≈ 0.828 µg/mL)
MIC [14]: 0.625 µM (≈ 0.207 µg/mL)
MIC (Enterococcus faecalis [16]): 2.5 µM (≈ 0.828 µg/mL)

CN[C@H](CC(C)C)C(=O)N[C@H]1C(=O)N[C@@H](CC(N)=O)C(=O)N[C@H]2C(=O)N[C@H]3C(=O)N[C@H](C(=O)N[C@H](C(=O)O)c4cc(O)cc(O)c4-c4cc3ccc4O)[C@H](O)c3ccc(c(Cl)c3)Oc3cc2cc(c3O[C@@H]2O[C@H](CO)[C@@H](O)[C@H](O)[C@H]2O[C@H]2C[C@](C)(N)[C@H](O)[C@H](C)O2)Oc2ccc(cc2Cl)[C@H]1O [VANCOMYCIN]
MIC (Enterococcus faecium): 40 µM (≈ 58 µg/mL)
MIC (Staphylococcus aureus [2]): 1.25 µM (≈ 1.81 µg/mL)
Activity (Staphylococcus aureus [3]): 72%
inhibition at 100 µM (Staphylococcus aureus [5]): 50%
MIC [6]: 2.5 µM (≈ 3.62 µg/mL)
inhibition at 100 µM (Staphylococcus aureus [9]): 25%
MIC (Staphylococcus aureus [10]): 2.5 µM and 3.6 µg/mL
MIC (Enterococcus faecalis [11]): 2.5 µM (≈ 3.62 µg/mL)
MIC (Staphylococcus aureus [13]): 1.25 µM (≈ 1.81 µg/mL)
MIC [14]: 2.5 µM (≈ 3.62 µg/mL)
MIC (Enterococcus faecalis [16]): 40 µM (≈ 58 µg/mL)
Activity (Staphylococcus aureus [17]): 61%
Activity (Cell membrane [22]): inactive

CC[C@H](C)[C@H](NC(=O)CN)C(=O)NCC(=O)N[C@@H](C)C(=O)N[C@H](C(=O)N[C@@H](CC(C)C)C(=O)N[C@@H](CCCCN)C(=O)N[C@H](C(=O)N[C@@H](CC(C)C)C(=O)N[C@H](C(=O)N[C@H](C(=O)NCC(=O)N[C@@H](CC(C)C)C(=O)N1CCC[C@H]1C(=O)N[C@@H](C)C(=O)N[C@@H](CC(C)C)C(=O)N[C@H](C(=O)N[C@@H](CO)C(=O)N[C@@H](Cc1c[nH]c2ccccc12)C(=O)N[C@H](C(=O)N[C@@H](CCCCN)C(=O)N[C@@H](CCCNC(=N)N)C(=O)N[C@@H](CCCCN)C(=O)N[C@@H](CCCNC(=N)N)C(=O)N[C@@H](CCC(N)=O)C(=O)N[C@@H](CCC(N)=O)C(N)=O)[C@@H](C)CC)[C@@H](C)CC)[C@@H](C)O)[C@@H](C)O)C(C)C)C(C)C
Activity (Cell membrane [23]): Active

O=C(O)CC1CCCc2c1[nH]c1ccc(OCc3ccc(C4CCCC4)c(C(F)(F)F)c3)cc21 (stereo not drawn)
MIC (Enterococcus faecium): 5 µM (≈ 2.36 µg/mL)
MIC (Pseudomonas aeruginosa): > 200 µM
MIC (Staphylococcus aureus [2]): 5 µM (≈ 2.36 µg/mL)
inhibition at 100 µM (Staphylococcus aureus [5]): > 90%
MIC [6]: 5 µM (≈ 2.36 µg/mL)
inhibition at 100 µM (Staphylococcus aureus [9]): > 90%
MIC (Staphylococcus aureus [10]): 5 µM and 2.4 µg/mL
MIC (Enterococcus faecalis [11]): 5 µM (≈ 2.36 µg/mL)
MIC (Staphylococcus aureus [13]): 5 µM (≈ 2.36 µg/mL)
MIC [14]: 10 µM (≈ 4.72 µg/mL)
MIC (Acinetobacter baumannii): > 200 µM
MIC (Enterococcus faecalis [16]): 10 µM (≈ 4.72 µg/mL)
inhibition at 40 µM (Staphylococcus aureus [19]): ≤ 90%

O=C(O)Cc1c[nH]c2ccc(OCc3ccc(C4CCCCC4)c(C(F)(F)F)c3)cc12
MIC (Enterococcus faecium): 20 µM (≈ 8.63 µg/mL)
MIC (Pseudomonas aeruginosa): > 200 µM
MIC (Staphylococcus aureus [2]): 10 µM (≈ 4.31 µg/mL)
inhibition at 100 µM (Staphylococcus aureus [5]): > 90%
MIC [6]: 10 µM (≈ 4.31 µg/mL)
inhibition at 100 µM (Staphylococcus aureus [9]): > 90%
MIC (Staphylococcus aureus [10]): 10 µM and 4.3 µg/mL
MIC (Enterococcus faecalis [11]): 20 µM (≈ 8.63 µg/mL)
MIC (Staphylococcus aureus [13]): 10 µM (≈ 4.31 µg/mL)
MIC [14]: 10 µM (≈ 4.31 µg/mL)
MIC (Acinetobacter baumannii): > 200 µM
MIC (Enterococcus faecalis [16]): 20 µM (≈ 8.63 µg/mL)
inhibition at 40 µM (Staphylococcus aureus [19]): ≤ 90%

O=C(O)c1ccc(OCc2ccc(C3CCCC3)c(C(F)(F)F)c2)cn1
MIC (Enterococcus faecium): 20 µM (≈ 7.31 µg/mL)
MIC (Pseudomonas aeruginosa): > 200 µM
MIC (Staphylococcus aureus [2]): 5 µM (≈ 1.83 µg/mL)
inhibition at 100 µM (Staphylococcus aureus [5]): > 90%
MIC [6]: 10 µM (≈ 3.65 µg/mL)
inhibition at 100 µM (Staphylococcus aureus [9]): > 90%
MIC (Staphylococcus aureus [10]): 10 µM and 3.7 µg/mL
MIC (Enterococcus faecalis [11]): 10 µM (≈ 3.65 µg/mL)
MIC (Staphylococcus aureus [13]): 5 µM (≈ 1.83 µg/mL)
MIC [14]: 5 µM (≈ 1.83 µg/mL)
MIC (Acinetobacter baumannii): > 200 µM
MIC (Enterococcus faecalis [16]): 20 µM (≈ 7.31 µg/mL)
inhibition at 40 µM (Staphylococcus aureus [19]): ≤ 90%
